Measured values: paper PMC5547389, “Structure-activity relationships and molecular docking studies of chromene and chromene based azo chromophores: A novel series of potent antimicrobial and anticancer agents” (EXCLI Journal, 2017)
Values after ≈ are worked out from the molar mass of the structure shown.

How the values were obtained:
[1] = tested on: human hepatocellular carcinoma (HEPG-2); test: Cytotoxic screening; format: cell-based; details: HepG2, read-out: IC50 HepG-2
Procedure, shortened: (§1)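 Read-out is crystal violet staining (the text also names MTT), lysis in 33 % acetic acid, A590, with untreated cells as 100 %. IC50 was estimated graphically from survival curves.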

[2] = tested on: human breast adenocarcinoma (MCF-7); test: Cytotoxic screening; format: cell-based; details: Homo sapiens, MCF7; read-out: IC50 MCF-7
Procedure, shortened: as §1

[3] = tested on: Human colon carcinoma (HCT-116); test: Cytotoxic screening; format: cell-based; details: Homo sapiens, HCT-116; read-out: IC50 HCT-116
Procedure, shortened: as §1

[4] = molecular target: T1, DNA gyrase from Escherichia coli (Escherichia coli, UniProt P0AES4+P0AES6); test: In vitro inhibitory activity screening of E. coli DNA gyrase; format: biochemical; details: for remaining activity at 10 µM: 10 μM of compound, read-out: DNA Gyrase Residual activity RA (10 μM); for remaining activity at 100 µM: read-out: DNA Gyrase Residual activity RA (100 μM)
T1 construct: purchased Inspiral is Ltd (Norwich, United Kingdom)
Description: Gyrase B and ParE monomers have only modest ATPase activity which is enhanced in the case of the holo enzymes and stimulated further by DNA. The phosphate released following conversion of ATP into ADP can be detected by the addition of malachite green solution and measured by monitoring the increase in absorbance at 600 nm. Topoisomerases were purchased from Inspiral is Ltd (Norwich, United Kingdom). For the Escherichia coli DNA gyrase ATPase assay, the final assay composition was 10 nM DNA gyrase (a complex of two GyrA and two GyrB subunits, the A2B2 complex) 3 mM Tris, pH 7.5, 24 mM KCl, 2 mM MgCl2, 6.5 % (w/v) glycerol, 0.01 mg/ml bovine serum albumin (BSA), 2 mM DTT (dithiothreitol), 9 mM ATP, and 5 % DMSO solution containing the compounds). For E. coli topoisomerase IV ATPase assay, the final assay composition was 10 nM topoisomerase IV (a complex consisting of two ParC and two ParE subunits), 40 mM HEPES-KOH, pH 7.6, 100 mM Potassium Glutamate, 25 mM Magnesium Acetate, […] single-stranded DNA, 0.2 mg/ml BSA, 10 mM DTT, 0.5 mM ATP, and 5 % DMSO solution containing the compounds. The reactions were started by the addition of the ATP, and the reaction mixtures were allowed to incubate at 30 °C for 60 mins. Reactions were stopped by adding Malachite green solution (0.034 % malachite green, 10 mM ammonium molybdate, 1M HCl, 3.4 % Ethanol, 0.01 % Tween 20). Color was allowed to develop for 5 min, and the absorbance at 600 nm was measured spectrophotometrically. The half-maximum (50 %) inhibitory concentration (IC50) values were determined from the absorbance readings using no-compound and no-enzyme controls. The values reported are the averages of at least four independent experiments.
Based upon the antimicrobial screening data, target compounds 4a, 7c, and 13b were evaluated against DNA gyrase from Escherichia coli in the DNA supercoiling assay for studying their mechanism. The results are presented in Table 5(Tab. 5) as residual activities (RA is the percentage activity of the enzyme in the presence of 10 μM and 100 μM of compound).

T1 sequence (P0AES4 whole entry, one chain of several): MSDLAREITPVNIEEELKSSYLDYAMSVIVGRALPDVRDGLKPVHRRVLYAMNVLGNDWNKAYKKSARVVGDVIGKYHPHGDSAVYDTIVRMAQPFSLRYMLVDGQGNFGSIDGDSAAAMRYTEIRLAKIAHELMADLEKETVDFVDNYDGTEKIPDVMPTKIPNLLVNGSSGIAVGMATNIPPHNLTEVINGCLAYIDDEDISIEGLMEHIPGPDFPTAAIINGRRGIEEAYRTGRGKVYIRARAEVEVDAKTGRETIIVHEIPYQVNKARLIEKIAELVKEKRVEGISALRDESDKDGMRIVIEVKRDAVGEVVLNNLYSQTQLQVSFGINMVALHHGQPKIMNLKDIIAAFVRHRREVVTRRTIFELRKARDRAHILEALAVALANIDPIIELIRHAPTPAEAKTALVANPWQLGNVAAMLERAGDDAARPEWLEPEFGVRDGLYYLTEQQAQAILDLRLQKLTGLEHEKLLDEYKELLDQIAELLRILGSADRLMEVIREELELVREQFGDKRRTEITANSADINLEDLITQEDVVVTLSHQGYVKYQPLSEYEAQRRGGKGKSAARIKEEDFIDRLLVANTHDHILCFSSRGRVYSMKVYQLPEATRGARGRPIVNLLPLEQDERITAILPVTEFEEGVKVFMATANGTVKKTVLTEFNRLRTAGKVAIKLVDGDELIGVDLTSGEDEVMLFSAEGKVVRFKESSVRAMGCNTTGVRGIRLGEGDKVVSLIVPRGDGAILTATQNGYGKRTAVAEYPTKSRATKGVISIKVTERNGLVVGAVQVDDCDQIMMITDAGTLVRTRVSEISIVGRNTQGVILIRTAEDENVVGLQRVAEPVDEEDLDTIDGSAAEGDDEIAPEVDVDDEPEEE

| Compound | IC50 [1] | IC50 [2] | IC50 [3] | melting point | remaining activity at 10 µM [4] | remaining activity at 100 µM [4] |
| --- | --- | --- | --- | --- | --- | --- |
| N#CC1=C(N)Oc2c(N)cc3ccccc3c2C1c1ccc(Cl)cc1 (stereo not shown) [4b, 3,5-diamino-1-(4-chlorophenyl)-1H-benzo[f]chromene-2-carbonitrile] | 1 µg/mL (≈ 2.88 µM) | 1 µg/mL (≈ 2.88 µM) | 1.1 µg/mL (≈ 3.16 µM) | 187 °C |  |  |
| N#CC1=C(N)Oc2c(ccc3c(N)cccc23)C1c1ccc(F)cc1 (stereo not shown) [7c] | 0.7 µg/mL (≈ 2.11 µM) | 1.4 µg/mL (≈ 4.23 µM) | 2 µg/mL (≈ 6.04 µM) |  | 125% | 128% |
| N#CC1=C(N)Oc2c(N)cc3ccccc3c2C1c1ccc(F)cc1 (stereo not shown) [4a, 3,5-diamino-1-(4-fluorophenyl)-1H-benzo[f]chromene-2-carbonitrile] | 0.3 µg/mL (≈ 0.905 µM) | 1 µg/mL (≈ 3.02 µM) | 1 µg/mL (≈ 3.02 µM) | 193 °C | 117% | 114% |
| Cc1ccc(C2C(C#N)=C(N)Oc3c(N)cc4ccccc4c32)cc1 (stereo not shown) [4c, 3,5-diamino-1-(p-tolyl)-1H-benzo[f]chromene-2-carbonitrile] | 0.3 µg/mL (≈ 0.916 µM) | 0.8 µg/mL (≈ 2.44 µM) | 1.1 µg/mL (≈ 3.36 µM) | 180 °C |  |  |
| COc1ccc(N=Nc2cc3c(cc2O)OC(N)=C(C#N)C3c2ccc(F)cc2)cc1 (stereo not shown) [13b, 2-Amino-4-(4-fluoro-phenyl)-7-hydroxy-6-(4-methoxy-phenylazo)-4H-chromene-3-carbonitrile] | 5.4 µg/mL (≈ 13 µM) | 3.78 µg/mL (≈ 9.08 µM) | 2.41 µg/mL (≈ 5.79 µM) | 272 °C | 137% | 127% |
